The values below come from patent publication US4758565A, “Substituted pyrimidoquinoxalines useful as anti-anaerobic agents” (G. D. Searle & Co., priority 1986, dated 1988).

Molecules are shown by their SMILES. Values after ≈ are worked out from the molar mass of the structure shown.

What all share (format): cell-based
The subject of one experiment is B. fragilis NCTC 9353. In words: Screening panel of Bacteroides fragilis, MIC and MBC, strain B. Conditions: Bacteroides fragilis, NCTC9353, 48 h. Here is the method:
(§1) The screening panel utilized in this example consisted of 5 strains of Bacteroides fragilis. All assays were carried out in 96-well microtitre plates. If an isolate was obtained from either a culture collection or clinical source, the isolate was immediately inoculated into Wilkins-Chalgren broth (Oxoid) and incubated at 37° C. in an anaerobic chamber in an atmosphere of 85% nitrogen, 10% carbon dioxide, and 5% hydrogen for 48 hours. At the end of this time, the viable count was about […] broth. A 1 ml aliquot of each culture was placed in an ampoule and quick frozen in acetone-dry ice mixture and stored in liquid nitrogen. […] A 2 mg sample of the test compound was dissolved in 0.2 ml of a suitable solvent such as dimethylsulfoxide, polyethylene glycol 200 or methanol. […] After addition of the test solution the final inoculum level was 10^5 cells/ml. The plates were incubated for 48 hours at 37° C. in the anaerobic chamber. The Minimum Inhibitory Concentration (MIC) was read visually. The MIC is defined as the lowest concentration at which there is no detectable growth. The Minimum Bactericidal Concentration (MBC) was determined by taking 50 μ l aliquot from each well and placing it in fresh medium. […] The strains of Bacteroides fragilis utilized in the above procedure are identified by letter in accordance with the following legend: |B B. fragilis NCTC 9353

For the next experiment, the system named is B. fragilis NCTC 9344. The experiment in a line: Screening panel of Bacteroides fragilis, MIC and MBC, strain C. The conditions noted are these: Bacteroides fragilis. Here is the method: as §1, with “|C” for “|B”, “9344” for “9353”
For experiment [1], the system named is B. fragilis MZ-R ATCC 11295. In words: Screening panel of Bacteroides fragilis, MIC and MBC, strain D. The conditions noted are these: ATCC11295, 48 h.
Another experiment deals with B. fragilis WS-1. The experiment in a line: Screening panel of Bacteroides fragilis, MIC and MBC, strain E. Conditions: WS1, 48 h. Here is the method: as §1, with “|E” for “|B”, “WS-1* | *Obtained from St. Thomas's Hospital Medical School, London, United | Kingdom.” for “NCTC 9353”
For experiment [2], the system named is Clostridium perfringens NCTC 523. In words: microbe, parasite or virus in culture. The conditions noted are these: NCTC523.
For experiment [3], the system named is Clostridium difficile NCIB 10666. In words: MIC vs panel of anaerobes. The conditions noted are these: Clostridioides difficile, NCIB10666, procedures of Example 11 (mg/L).
Experiment [4] deals with Campylobacter fetus ss. jejuni ATCC 29428. In words: MIC vs panel of anaerobes. The conditions noted are these: ATCC29428, procedures of Example 11 (mg/L).
In experiment [5] the test system is Campylobacter fetus ss. jejuni NCTC 10842. In words: MIC vs panel of anaerobes. The conditions noted are these: NCTC10842, procedures of Example 11 (mg/L).
Experiment [6] concerns Fusobacterium necrophorum ATCC 25286. The experiment in a line: MIC vs panel of anaerobes. The conditions noted are these: ATCC25286, procedures of Example 11 (mg/L).
Experiment [7] relates to Fusobacterium necrophorum ATCC 11295. The experiment in a line: MIC vs panel of anaerobes. Conditions: ATCC11295, procedures of Example 11 (mg/L).
Experiment [8] has as its system Bacteroides melanogenicus NCTC 9336. The experiment in a line: MIC vs panel of anaerobes. The conditions noted are these: NCTC9336, procedures of Example 11 (mg/L).
The test system of experiment [9] is Peptostreptococcus anaerobius. The experiment in a line: MIC vs panel of anaerobes. Conditions: procedures of Example 11 (mg/L).
Where [10] appears, read: 48 hours at 37° C., anaerobic, read-out: Minimum Inhibitory Concentration (MIC).
[11] abbreviates: less than 5 colonies (99.9% reduction) after 48 hours, read-out: Minimum Bactericidal Concentration (MBC).

For `Cc1ccc(C2=[N+]([O-])c3cc(C(F)(F)F)ccc3N3CC(C)(C)CN=C23)cc1` [Example 3, 2,3-Dihydro-2,2-dimethyl-5-(4-methylphenyl)-8-trifluoromethyl-1H-pyrimid [1,2-a]quinoxaline 6-oxide], the MIC in the experiment with B. fragilis NCTC 9353 (setting [10]) is 1.5 µg/mL (≈ 3.87 µM); in the experiment with B. fragilis NCTC 9344 (NCTC9344, 48 hours at 37° C., anaerobic, read-out: Minimum Inhibitory Concentration (MIC)), 3.1 µg/mL (≈ 8 µM); in [1] (setting [10]) it was 1.5 µg/mL (≈ 3.87 µM); in the experiment on B. fragilis WS-1 (setting [10]) it was less than 0.8 µg/mL; in [2] it was less than 0.8 µg/mL; in experiment [3] it was less than 0.8 µg/mL. In addition, the MIC in experiment [4] is greater than 100 µg/mL; in [5], 12.5 µg/mL (≈ 32.3 µM); in experiment [6] it was less than 0.8 µg/mL; in [7] it was 6.2 µg/mL (≈ 16 µM); in experiment [8], greater than 100 µg/mL; in [9], greater than 100 µg/mL. Moreover, the MBC in the experiment with B. fragilis NCTC 9353 (setting [11]) was 1.5 µg/mL (≈ 3.87 µM); in the experiment on B. fragilis NCTC 9344 (NCTC9344, 48 h, less than 5 colonies (99.9% reduction) after 48 hours, read-out: Minimum Bactericidal Concentration (MBC)), 3.1 µg/mL (≈ 8 µM); in experiment [1] (setting [11]), 6.2 µg/mL (≈ 16 µM); in the experiment with B. fragilis WS-1 (setting [11]) it was 1.5 µg/mL (≈ 3.87 µM).
